Laboratory results reported in US4372948A, “Derivative of saccharide and physiologically active agent containing the same” (Kureha Kagaku Kogyo Kabushiki Kaisha, priority 1980, dated 1983).

Tests used:
[1] = in vivo; conditions: mouse, in vivo, po, mice, 7 days observation, read-out: LD50, acute oral toxicity
[2] = system: level of blood sugar; assay: Anti-hyperglycemia activity (reduction of blood sugar level); assay type: in vivo, rat (Wistar, streptozotocin); conditions: oral, 300 mg/kg
Method: A group of Wistar rats to which at first streptozotocin was interperitoneally administered at a rate of 60 mg/kg and of which the positivity of glycosuria was confirmed after a week of the administration and to which regular insulin was further administered and of which the reduction of levels of glucose in urine and blood was once confirmed, however, of which hyperglycemia and hyperglycosuria were again confirmed after a few days was chosen and used as model animals of glycosuria in the following test. After orally administering each of the present compounds to the model animals at a dose of 300 mg/kg body weight, as a solution or dispersion in distilled water, the blood was collected two times, respectively after 3 and 6 hours of the administration.

[3] = system: blood pressure; assay: Anti-hypertension activity (reduction of blood pressure); assay type: in vivo, rat (spontaneous hypertension); conditions: oral, 300 mg/kg
Method: Rats of spontaneous hypertension were orally administered with each of the present compounds as a solution or dispersion in distilled water at a dose rate of 300 mg/kg body weight. After 3 and 6 hours of the administration, the blood pressure of each rat was determined, and the difference between the above-determined value and the value just before the administeration was used as the index of the activity of reducing the blood pressure of the compound.

[4] = system: Sarcoma-180; assay: Anti-tumour activity against Sarcoma-180; assay type: in vivo, mouse (ICR-JCL); conditions: Mus musculus, Sarcoma-180, po, 600 h, 10 times every other day, tumour weight on 25th day, read-out: Antitumour activity, inhibiting rate (I.R.)
Method: Sarcoma-180 was transplanted into the axillary part of ICR-JCL mice at a rate of 1×10^6 cells/animal, and after 24 hours of transplantation, each of the present compounds as a solution or dispersion in sterilized physiological saline solution was orally administered to each of the transplanted mice 10 times every other day at a dose of 500 mg/kg/time. On 25th day of the transplantation, tumour node(s) were extirpated from all the mice to determine the weight of the tumour nodes.
Antitumour activity (activity of inhibiting the proliferation of the transplanted sarcoma) of each of the present compounds was derived by the following formula and shown in Table 6:
Antitumour activity (Inhibiting rate, I.R.)=(1-T/C)×100(%).
T represents the total weight of tumour nodes of the group of mice transplanted and administered with the present compound, and
C represents the total weight of tumour nodes of the group of mice transplanted, however, not administered with any agents.

[5] = system: total cholesterol; assay: Anti-hyperlipemia activity, total cholesterol in blood; assay type: in vivo, rabbit (Japanese white male); conditions: oral, 300 mg/kg once; for Reduction of cholesterol level after 3 hrs.: negative = raising
Method: (§1) Japanese white male rabbits were fed for 3 months with a solid diet containing 1% of cholesterol taken ad lib, and after confirming the raised lipid content of the serum of the rabbits, they were utilized as model animals suffering from experimental arteriosclerosis. Each of the present compounds was administered orally as a solution or dispersion in distilled water to the experimental animals of each group at a dose rate of 300 mg/kg once, and blood samples were taken at a predetermined time interval from the auricular vein of each animal. The content of cholesterol in the blood specimen was traced as the time passed by, with an enzymatic method, and the content of beta-lipoprotein in the same blood specimen was traced with a colorimetry. Each value in Table 7 is the difference between the level just before administration and the level after 3 or 6 hours of the administration.

[6] = system: beta-lipoprotein; assay: Anti-hyperlipemia activity, beta-lipoprotein in blood; assay type: in vivo, rabbit (Japanese white male); conditions: oral, 300 mg/kg once
Method: as §1

[7] = system: carrageenin edema; assay: Anti-Carrageenin edema activity; assay type: in vivo, rat; conditions: Rattus norvegicus, po, 1000 mg/kg once, read-out: I.R. against carrageenin edema
Method: After orally administering each of the present compounds forcibly to each group of rats, composed of 10 animals, as a solution or dispersion in distilled water at a dose of 1000 mg/kg once, 0.1 ml of an aqueous dispersion of 1% carrageenin in aqueous physiological saline solution was injected into the foot pad of the right hind leg of the administered animal following Van Arman et al. (1963). Thereafter, the thickness of the foot pad was measured at a time interval to find the rate of inhibiting of the swelling of the foot pad according to the following formula:
(§2) Rate of inhibition (I.R.) (%)=(1-T/C)×100
T means the average volume of the foot pad of the animals administered with one of the present compounds and carrageenin, and
C means that of the animal not administered with the present compound, however, administered with carrageenin.

[8] = system: cotton pellet granuloma; assay: Anti-granuloma activity (cotton pellet); assay type: in vivo, rat; conditions: Rattus norvegicus, po, 192 h, 7 days, read-out: I.R. against cotton pellet edema
Method: Following the method of Winter et al. (1963), each two cotton wool pellets, each weighing 30±1 mg, were implanted into the back of each rats of groups of rats, each group consisting of 6 animals, at the positions of mutually symmetrical concerning the median line of the rat. To these groups of the thus operated rats, the present compounds were respectively administered orally and forcibly as a solution or dispersion in distilled water for 7 continuous days, once a day at a dose of 1000 mg/kg/day. On 8th day of the implantation, the granuloma was extirpated and the dry weight of the granuloma was measured, the rate of inhibiting the proliferation of granuloma being obtained as in (5-1) being shown in Table 8.

[9] = system: exudation; assay: Anti-exudation activity (air pouch, croton oil); assay type: in vivo, rat; conditions: 5 days; for inhibition in vivo at 1000 mg/kg/day: Rattus norvegicus, po, 144 h, read-out: I.R. against exudation
Method: Following the method of Baris et al. (1965), air was injected subcutaneously into the back of groups of rats, each group consisting of 6 animals to make an air pouch, and 0.5 ml of sesame oil containing 1% by weight of croton oil was injected into the air pouch. Each of the present compounds was orally administered forcibly to each of the groups of rats as a solution or dispersion in distilled water at a dose rate of 1000 mg/kg/day for continued five days. The amount of liquid exudated into the air pouch was measured on 6th day of the operation. The rate of inhibiting the exudation of the liquid was obtained by the same manner as in (5-2) and the results are shown also in Table 8.

[10] = system: pseudo-escaping reaction to tail pressure; assay: Analgetic activity against mechanical stimulation of pressure; assay type: in vivo, mouse (ICR female); conditions: oral, 1000 mg/kg
[11] = system: acetic acid writhing; assay: Analgetic activity against chemical stimulation of acetic acid (writhing); assay type: in vivo, mouse (ICR female); conditions: Mus musculus, po, 30 min before 0.6% acetic acid, read-out: I.R. of writhing
From the text: as §2
T represents the average number of writhing of the group of mice administered with the present compound and injected with acetic acid, and C represents the average number of writhing of the group of mice only injected with acetic acid (control).

[12] = system: pyrexia (Saccharomyces cerevisiae); assay: Anti-pyrexia activity (yeast-induced); assay type: in vivo; conditions: Rattus norvegicus, oral, read-out: Rate of inhibiting pyrexia (I.R.)
Method: Following the method of Winter et al. (1961), an aqueous dispersion of 20% by weight of Saccharomyces cerevisiae was subcutaneously injected into groups of rats, each group consisting of 6 animals, and after 10-hour fasting, 1000 mg/kg of each of the present compounds was orally administered to the rat as a solution of dispersion in distilled water, and then the rectal temperature of the rat was measured at a predetermined interval of time to find the lowest temperature.
The anti-pyrexia activity of each compound was obtained from the following formula: […]
Anti-pyrexia activity represented by the rate of inhibition (I.R.)
C2 represents the average rectal temperature of negative control (non-treatment), not injected with the yeast and not administered with the present compound,
C1 represents the average temperature of positive control, injected with the yeast and not administered with the compound and T represents the temperature of tested animals, injected with the yeast and administered with the present compound.

SMILES | LD50 at 168 h [1] | Reduced level of blood sugar after 3 hrs. [2] | Reduced level of blood sugar after 6 hrs. [2] | Reduced level of blood pressure after 3 hrs. [3] | Reduced level of blood pressure after 6 hrs. [3] | inhibition in vivo at 500 mg/kg [4] | Reduction of cholesterol level after 3 hrs. [5] | Reduction of cholesterol level after 6 hrs. [5] | Reduction of beta-lipoprotein level after 3 hrs. [6] | Reduction of beta-lipoprotein level after 6 hrs. [6] | inhibition in vivo at 1000 mg/kg [7] | inhibition in vivo at 1000 mg/kg/day [8] | inhibition in vivo at 1000 mg/kg/day [9] | Pseudo-escapting reaction pressure [10] | Pseudo-escapting reaction time [10] | inhibition in vivo at 1000 mg/kg [11] | inhibition in vivo at 1000 mg/kg [12] | further results
C[C@@H]1OC(Nc2ccccc2C(=O)Oc2ccccc2)[C@H](O)[C@H](O)[C@H]1O (stereo partly drawn) [Compound 6, phenyl o-aminobenzoate-N-L-rhamnoside] | > 15000 mg/kg | 121 mg/dL | 146 mg/dL | 22 mm Hg | 23 mm Hg | 44% | 4 mg/dL | 57 mg/dL | 152 mg/dL | 155 mg/dL | 7.6% | 20.5% | 19% | 98 mmHg | 43 s | 37% | 69% | –
NC(=O)c1ccccc1NC1(CO)OC[C@@H](O)[C@@H](O)[C@@H]1O (stereo partly drawn) [Compound 1, o-Aminobenzoic acid amide-N-D-fructoside] | 11800 mg/kg | 68 mg/dL | 92 mg/dL | 16 mm Hg | 19 mm Hg | 42% | -2 mg/dL | 36 mg/dL | 120 mg/dL | 131 mg/dL | 15.6% | 6.6% | 17.5% | 78 mmHg | 38 s | 17% | 41% | –
C[C@@H]1OC(Nc2cccc(C(=O)OCc3ccccc3)c2)[C@@H](O)[C@H](O)[C@@H]1O (stereo partly drawn) [Compound 11, benzyl m-aminobenzoate-N-L-fucoside] | 9700 mg/kg | 75 mg/dL | 88 mg/dL | 21 mm Hg | 25 mm Hg | 40% | -1 mg/dL | 50 mg/dL | 98 mg/dL | 109 mg/dL | 22.8% | 4.4% | 11% | 74 mmHg | 35 s | 17% | 29% | –
C[C@@H]1OC(Nc2ccc(CC(=O)O)cc2)[C@H](O)[C@H](O)[C@H]1O (stereo partly drawn) [Compound 27, p-aminophenylacetic acid-N-L-rhamnoside] | 13800 mg/kg | 91 mg/dL | 90 mg/dL | 20 mm Hg | 20 mm Hg | 43% | – | – | – | – | 5.2% | 23.1% | – | 91 mmHg | 40 s | 35% | – | Reduction of cholesterol level after 3 hrs. ([5]; 300 mg/kg): 1 mg/dL; Reduction of cholesterol level after 6 hrs. ([5]; 300 mg/kg): 30 mg/dL; Reduction of beta-lipoprotein level after 3 hrs. ([6]; 300 mg/kg): 125 mg/dL; Reduction of beta-lipoprotein level after 6 hrs. ([6]; 300 mg/kg): 130 mg/dL; I.R. against exudation ([9]; oral, 1000 mg/kg/day): 16.5%
COC(=O)Cc1ccc(NC2O[C@@H](C)[C@H](O)[C@@H](O)[C@H]2O)cc1 (stereo partly drawn) [Compound 26, methyl p-aminophenylacetate-N-L-rhamnoside] | 11200 mg/kg | 90 mg/dL | 136 mg/dL | 20 mm Hg | 23 mm Hg | 45% | -3 mg/dL | 51 mg/dL | 123 mg/dL | 133 mg/dL | 5.3% | 24.1% | 17.7% | 92 mmHg | 41 s | 34% | 60% | –
